{
  "source": "patent US8409603B2",
  "about": "“Compositions and methods for tissue engineering, tissue regeneration and wound healing” (University of South Carolina, priority 2009, dated 2013)",
  "tested_on": "lens epithelial cells",
  "assay": "Toroid (ring) formation by cells added onto polymerized collagen gel",
  "assay_type": "cell-based",
  "conditions": "addition to the culture fluid of 3-30 ng",
  "protocol": "FIG. 1 illustrates examples of toroids generated from EMT-primed lens epithelial cells; a-c) a control series of 3 toroids generated in regular media, d-f) a control series of 3 toroids generated in media containing a control peptide and g-h) a series of 3 toroids generated in media containing a an ACT1 peptide in combination with Tgfb1.\nIn a variation on this protocol, cells were added onto an already polymerized gel and the gel was detached after 24 hours of culture. Following a subsequent 24 hours it was noted that quite unlike what was observed when cells were pre-mixed into the gel, cells added post-polymerization always formed into uniform circular rings of repeatable diameter (FIG. 1b). […] Confocal microscopy of rhodamine-phalloidin and nuclear-DAPI stained gels indicated a two-phase structure with cells undergoing recruitment at the outer rim arranging in radial spoke-like arrays (FIG. 1e), whereas cells in on the inner rim organized into a contractile ring (FIG. 1f). […] This experiment was repeated with REC cells (Wada A M, Smith T K, Osler M E, Reese D E, Bader D M. Epicardial/Mesothelial cell line retains vasculogenic potential of embryonic epicardium. Circ Res. 2003 Mar. 21; 92(5):525-31. Epub 2003 Feb. 6, incorporated by reference herein), a rat […] with similar effect. […]",
  "data": [
    {"substance": "TGF-b", "values": [
      {"measurement": "ring size of toroid", "result": "predictably altered"}
    ]}
  ]
}
